{"source": "ChEMBL document CHEMBL5058646", "about": "(2022)", "key": {"[1]": {"biological_target": "Sigma intracellular receptor 2 (Homo sapiens, UniProt Q5BJF2)", "sequence (Q5BJF2 whole entry)": "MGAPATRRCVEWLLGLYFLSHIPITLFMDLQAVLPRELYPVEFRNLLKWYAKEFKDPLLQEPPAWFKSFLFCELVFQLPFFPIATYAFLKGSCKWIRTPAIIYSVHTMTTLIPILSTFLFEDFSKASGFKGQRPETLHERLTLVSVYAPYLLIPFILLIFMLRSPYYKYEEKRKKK", "assay": "GPCRScan assay: inhibition of Sigma 2", "set-up": "radioligand conc. used [nm] 5.0, parental cells HEKT"}, "[2]": {"biological_target": "T1, Zinc finger protein 131 (Homo sapiens) (UniProt P52739)", "T1 sequence (whole entry)": "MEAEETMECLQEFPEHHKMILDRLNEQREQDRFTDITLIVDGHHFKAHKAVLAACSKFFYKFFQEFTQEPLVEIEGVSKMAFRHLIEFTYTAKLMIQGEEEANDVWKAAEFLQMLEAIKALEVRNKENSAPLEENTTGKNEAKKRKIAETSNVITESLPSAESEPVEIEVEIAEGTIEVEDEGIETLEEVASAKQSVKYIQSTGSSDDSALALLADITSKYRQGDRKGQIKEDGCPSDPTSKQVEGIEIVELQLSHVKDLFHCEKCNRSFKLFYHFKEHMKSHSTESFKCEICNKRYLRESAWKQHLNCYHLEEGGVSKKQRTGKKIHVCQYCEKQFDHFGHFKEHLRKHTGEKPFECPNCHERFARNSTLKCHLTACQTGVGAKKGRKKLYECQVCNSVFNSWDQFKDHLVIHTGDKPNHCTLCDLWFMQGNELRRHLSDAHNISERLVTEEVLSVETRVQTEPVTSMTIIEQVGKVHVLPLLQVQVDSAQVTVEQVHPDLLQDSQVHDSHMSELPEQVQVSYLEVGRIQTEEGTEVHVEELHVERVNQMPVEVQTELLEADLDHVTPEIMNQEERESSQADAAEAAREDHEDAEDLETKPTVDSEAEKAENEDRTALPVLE", "settings": "OCI-Ly1, Compound concentration 1.0 uM"}, "[3]": {"biological_target": "D(2) dopamine receptor (Homo sapiens) (UniProt P14416)", "settings": "Compound concentration 10.0 uM"}, "[4]": {"biological_target": "AP2-associated protein kinase 1 (Homo sapiens) (UniProt Q2M2I8)", "sequence (Q2M2I8 whole entry, looked up)": "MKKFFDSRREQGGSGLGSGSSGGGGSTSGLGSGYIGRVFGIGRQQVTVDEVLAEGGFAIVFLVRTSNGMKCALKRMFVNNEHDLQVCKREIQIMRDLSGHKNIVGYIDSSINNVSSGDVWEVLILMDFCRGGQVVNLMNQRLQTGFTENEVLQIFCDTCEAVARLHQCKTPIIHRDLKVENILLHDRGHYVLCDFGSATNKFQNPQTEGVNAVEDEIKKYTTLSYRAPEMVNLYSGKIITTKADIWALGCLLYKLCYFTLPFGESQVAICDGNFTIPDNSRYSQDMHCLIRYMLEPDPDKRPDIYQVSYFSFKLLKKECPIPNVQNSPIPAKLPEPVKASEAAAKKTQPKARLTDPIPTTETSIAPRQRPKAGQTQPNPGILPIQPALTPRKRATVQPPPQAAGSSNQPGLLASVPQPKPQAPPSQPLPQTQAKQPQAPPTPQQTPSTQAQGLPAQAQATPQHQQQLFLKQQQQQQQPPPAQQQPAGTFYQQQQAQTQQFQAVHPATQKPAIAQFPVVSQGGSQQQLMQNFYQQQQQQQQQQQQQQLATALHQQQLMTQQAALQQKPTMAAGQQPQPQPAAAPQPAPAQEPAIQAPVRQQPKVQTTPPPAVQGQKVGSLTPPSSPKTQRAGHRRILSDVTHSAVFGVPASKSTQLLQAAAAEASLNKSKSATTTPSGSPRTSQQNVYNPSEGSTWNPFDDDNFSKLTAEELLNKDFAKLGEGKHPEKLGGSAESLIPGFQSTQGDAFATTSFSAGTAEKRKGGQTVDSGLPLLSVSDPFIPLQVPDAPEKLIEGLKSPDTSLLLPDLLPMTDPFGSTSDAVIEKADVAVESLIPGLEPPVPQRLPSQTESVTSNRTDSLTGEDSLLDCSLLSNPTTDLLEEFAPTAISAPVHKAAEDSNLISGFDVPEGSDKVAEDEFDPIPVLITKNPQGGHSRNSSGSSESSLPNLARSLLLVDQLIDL", "assay": "AAK1 SGC Tm panel (DSF)", "settings": "Compound concentration 20.0 uM"}, "[5]": {"biological_target": "Maternal embryonic leucine zipper kinase (Homo sapiens) (UniProt Q14680)", "sequence (Q14680 whole entry, looked up)": "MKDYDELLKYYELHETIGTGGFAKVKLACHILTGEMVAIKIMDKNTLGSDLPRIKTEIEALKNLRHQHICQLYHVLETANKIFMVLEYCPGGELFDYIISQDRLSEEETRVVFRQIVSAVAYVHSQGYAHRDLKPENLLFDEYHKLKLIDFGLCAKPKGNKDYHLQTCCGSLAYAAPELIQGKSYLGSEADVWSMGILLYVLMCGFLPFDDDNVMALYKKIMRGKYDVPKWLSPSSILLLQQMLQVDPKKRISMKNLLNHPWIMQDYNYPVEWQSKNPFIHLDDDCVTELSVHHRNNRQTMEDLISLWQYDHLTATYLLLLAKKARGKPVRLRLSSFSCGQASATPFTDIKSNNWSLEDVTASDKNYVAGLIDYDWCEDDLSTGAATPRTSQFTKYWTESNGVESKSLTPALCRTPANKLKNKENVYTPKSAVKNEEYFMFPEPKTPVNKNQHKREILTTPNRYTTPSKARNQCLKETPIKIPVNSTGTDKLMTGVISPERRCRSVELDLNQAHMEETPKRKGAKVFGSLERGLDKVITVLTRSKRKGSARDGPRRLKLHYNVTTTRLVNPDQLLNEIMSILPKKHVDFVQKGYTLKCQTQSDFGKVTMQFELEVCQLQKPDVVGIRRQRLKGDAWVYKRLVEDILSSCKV", "assay": "MELK SGC Tm panel (DSF)", "settings": "Compound concentration 20.0 uM"}, "[6]": {"biological_target": "Fibroblast growth factor receptor 2 (Homo sapiens) (UniProt P21802)", "sequence (P21802 22-821 limits assumed)": "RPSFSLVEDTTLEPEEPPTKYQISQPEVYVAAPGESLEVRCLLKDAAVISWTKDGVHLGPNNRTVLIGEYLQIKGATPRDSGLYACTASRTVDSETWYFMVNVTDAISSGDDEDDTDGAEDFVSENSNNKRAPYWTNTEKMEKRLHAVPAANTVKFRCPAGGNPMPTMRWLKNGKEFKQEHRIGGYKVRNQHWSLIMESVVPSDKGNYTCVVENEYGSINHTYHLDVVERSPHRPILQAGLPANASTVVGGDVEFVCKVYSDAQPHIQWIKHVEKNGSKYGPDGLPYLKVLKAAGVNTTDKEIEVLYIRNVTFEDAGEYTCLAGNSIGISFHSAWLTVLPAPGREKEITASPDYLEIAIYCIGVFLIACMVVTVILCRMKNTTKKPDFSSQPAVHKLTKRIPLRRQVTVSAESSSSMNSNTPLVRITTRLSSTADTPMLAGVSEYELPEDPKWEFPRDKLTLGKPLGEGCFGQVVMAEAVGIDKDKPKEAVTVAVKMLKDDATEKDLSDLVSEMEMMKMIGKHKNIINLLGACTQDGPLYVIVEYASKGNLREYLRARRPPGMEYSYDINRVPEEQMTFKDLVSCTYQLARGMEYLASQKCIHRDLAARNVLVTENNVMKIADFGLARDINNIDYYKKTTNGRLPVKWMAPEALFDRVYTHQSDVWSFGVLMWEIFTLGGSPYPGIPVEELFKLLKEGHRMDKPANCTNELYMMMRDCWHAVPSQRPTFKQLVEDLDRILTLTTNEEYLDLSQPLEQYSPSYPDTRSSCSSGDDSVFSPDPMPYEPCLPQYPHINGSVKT", "assay": "FGFR2 SGC Tm panel (DSF)", "settings": "Compound concentration 20.0 uM"}, "[7]": {"biological_target": "Zinc finger and BTB domain-containing protein 21 (Homo sapiens) (UniProt Q9ULJ3)", "sequence (Q9ULJ3 whole entry, the tested form may be a part)": "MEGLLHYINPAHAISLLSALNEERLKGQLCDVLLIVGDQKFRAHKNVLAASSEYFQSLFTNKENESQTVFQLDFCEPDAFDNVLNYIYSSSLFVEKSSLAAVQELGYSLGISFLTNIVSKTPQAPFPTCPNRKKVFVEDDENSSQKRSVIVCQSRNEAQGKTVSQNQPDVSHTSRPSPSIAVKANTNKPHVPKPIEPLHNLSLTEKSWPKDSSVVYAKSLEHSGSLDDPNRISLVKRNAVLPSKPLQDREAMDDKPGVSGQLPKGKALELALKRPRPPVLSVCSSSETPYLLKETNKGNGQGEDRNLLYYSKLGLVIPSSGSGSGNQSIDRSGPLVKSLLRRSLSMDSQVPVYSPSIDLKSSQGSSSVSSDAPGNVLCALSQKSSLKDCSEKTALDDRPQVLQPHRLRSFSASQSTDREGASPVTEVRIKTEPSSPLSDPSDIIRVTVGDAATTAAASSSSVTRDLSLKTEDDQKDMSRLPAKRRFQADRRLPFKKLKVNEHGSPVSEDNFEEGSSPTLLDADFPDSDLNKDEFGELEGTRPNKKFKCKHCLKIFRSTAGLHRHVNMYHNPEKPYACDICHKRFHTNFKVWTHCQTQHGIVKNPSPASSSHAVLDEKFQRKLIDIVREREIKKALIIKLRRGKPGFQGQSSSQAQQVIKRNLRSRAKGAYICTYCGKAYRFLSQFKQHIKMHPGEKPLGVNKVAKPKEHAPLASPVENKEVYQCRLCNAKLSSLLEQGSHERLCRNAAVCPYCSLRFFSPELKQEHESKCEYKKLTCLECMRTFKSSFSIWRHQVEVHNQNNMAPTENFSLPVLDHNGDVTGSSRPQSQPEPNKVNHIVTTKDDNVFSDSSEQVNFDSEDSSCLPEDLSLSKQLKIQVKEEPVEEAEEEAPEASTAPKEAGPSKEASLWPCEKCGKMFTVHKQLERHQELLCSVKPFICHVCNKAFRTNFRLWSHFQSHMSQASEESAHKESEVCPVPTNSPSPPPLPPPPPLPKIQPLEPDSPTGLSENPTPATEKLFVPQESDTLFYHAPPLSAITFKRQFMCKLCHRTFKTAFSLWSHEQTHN", "settings": "SUD4, Compound concentration 1.0 uM"}, "[8]": {"biological_target": "T1, Zinc finger protein 131 (Homo sapiens)", "settings": "SUD4, Compound concentration 1.0 uM"}, "[9]": {"biological_target": "Dual specificity tyrosine-phosphorylation-regulated kinase 1A (Homo sapiens) (UniProt Q13627)", "assay": "DYRK1A SGC Tm panel (DSF)", "settings": "Compound concentration 20.0 uM"}, "[10]": {"biological_target": "Ephrin type-A receptor 5 (Homo sapiens) (UniProt P54756)", "sequence (P54756 whole entry)": "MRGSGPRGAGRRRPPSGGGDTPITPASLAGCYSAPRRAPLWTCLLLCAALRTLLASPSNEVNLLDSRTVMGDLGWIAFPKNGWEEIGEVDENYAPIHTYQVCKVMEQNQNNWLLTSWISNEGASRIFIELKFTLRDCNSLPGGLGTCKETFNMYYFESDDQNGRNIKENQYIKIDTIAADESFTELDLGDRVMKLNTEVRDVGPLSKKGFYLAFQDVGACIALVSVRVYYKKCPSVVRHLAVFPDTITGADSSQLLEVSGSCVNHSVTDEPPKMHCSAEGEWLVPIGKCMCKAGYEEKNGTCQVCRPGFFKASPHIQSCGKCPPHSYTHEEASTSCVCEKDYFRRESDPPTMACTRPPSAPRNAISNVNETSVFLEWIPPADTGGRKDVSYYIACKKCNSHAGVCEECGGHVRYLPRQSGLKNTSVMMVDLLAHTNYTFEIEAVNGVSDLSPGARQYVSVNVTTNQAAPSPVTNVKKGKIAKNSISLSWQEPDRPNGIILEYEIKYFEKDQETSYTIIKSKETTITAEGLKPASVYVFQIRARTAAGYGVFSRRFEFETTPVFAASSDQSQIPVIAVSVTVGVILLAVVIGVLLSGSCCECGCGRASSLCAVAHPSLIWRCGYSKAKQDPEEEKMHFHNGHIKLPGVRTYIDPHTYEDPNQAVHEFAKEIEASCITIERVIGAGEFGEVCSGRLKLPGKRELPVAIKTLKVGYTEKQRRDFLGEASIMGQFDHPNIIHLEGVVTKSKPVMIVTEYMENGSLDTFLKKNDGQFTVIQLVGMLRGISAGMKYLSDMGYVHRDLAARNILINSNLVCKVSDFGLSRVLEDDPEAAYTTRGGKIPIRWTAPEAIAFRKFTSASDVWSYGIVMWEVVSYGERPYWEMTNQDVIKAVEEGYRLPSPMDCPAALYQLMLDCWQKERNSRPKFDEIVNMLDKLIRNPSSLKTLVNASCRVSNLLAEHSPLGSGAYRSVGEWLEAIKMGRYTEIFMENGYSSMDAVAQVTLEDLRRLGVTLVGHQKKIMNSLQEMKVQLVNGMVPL", "assay": "EPHA5 SGC Tm panel (DSF)", "settings": "Compound concentration 20.0 uM"}, "[11]": {"biological_target": "T2, Zinc finger and BTB domain-containing protein 11 (Homo sapiens) (UniProt O95625)", "T2 sequence (whole entry)": "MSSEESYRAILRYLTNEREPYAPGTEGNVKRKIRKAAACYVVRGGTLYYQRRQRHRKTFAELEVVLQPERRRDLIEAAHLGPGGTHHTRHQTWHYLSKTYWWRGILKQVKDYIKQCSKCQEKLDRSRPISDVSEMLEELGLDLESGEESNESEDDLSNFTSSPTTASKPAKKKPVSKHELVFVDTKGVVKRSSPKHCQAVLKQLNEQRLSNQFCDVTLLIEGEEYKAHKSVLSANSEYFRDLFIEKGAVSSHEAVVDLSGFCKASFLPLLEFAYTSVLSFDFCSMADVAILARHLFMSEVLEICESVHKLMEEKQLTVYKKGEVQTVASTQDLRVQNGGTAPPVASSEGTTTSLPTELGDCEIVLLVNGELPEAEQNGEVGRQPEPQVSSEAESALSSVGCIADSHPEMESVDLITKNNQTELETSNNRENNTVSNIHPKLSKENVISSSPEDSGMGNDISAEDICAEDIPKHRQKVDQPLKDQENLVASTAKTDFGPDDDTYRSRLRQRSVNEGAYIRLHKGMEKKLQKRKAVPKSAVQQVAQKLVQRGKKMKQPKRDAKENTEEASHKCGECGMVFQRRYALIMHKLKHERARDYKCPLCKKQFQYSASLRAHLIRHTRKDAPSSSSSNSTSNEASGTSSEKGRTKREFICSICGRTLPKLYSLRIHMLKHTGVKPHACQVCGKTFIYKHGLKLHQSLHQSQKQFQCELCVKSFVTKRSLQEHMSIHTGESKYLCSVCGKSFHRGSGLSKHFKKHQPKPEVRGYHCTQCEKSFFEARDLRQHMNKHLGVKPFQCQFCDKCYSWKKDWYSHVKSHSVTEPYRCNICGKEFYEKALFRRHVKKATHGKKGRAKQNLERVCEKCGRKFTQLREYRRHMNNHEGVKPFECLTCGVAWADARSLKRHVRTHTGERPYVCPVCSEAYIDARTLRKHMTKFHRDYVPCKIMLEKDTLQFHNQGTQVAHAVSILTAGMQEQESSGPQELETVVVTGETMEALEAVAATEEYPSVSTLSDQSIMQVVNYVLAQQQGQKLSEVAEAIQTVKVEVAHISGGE", "settings": "OCI-Ly1, Compound concentration 1.0 uM"}, "[12]": {"biological_target": "T3, Telomere zinc finger-associated protein (Homo sapiens) (UniProt P10074)", "T3 sequence (whole entry)": "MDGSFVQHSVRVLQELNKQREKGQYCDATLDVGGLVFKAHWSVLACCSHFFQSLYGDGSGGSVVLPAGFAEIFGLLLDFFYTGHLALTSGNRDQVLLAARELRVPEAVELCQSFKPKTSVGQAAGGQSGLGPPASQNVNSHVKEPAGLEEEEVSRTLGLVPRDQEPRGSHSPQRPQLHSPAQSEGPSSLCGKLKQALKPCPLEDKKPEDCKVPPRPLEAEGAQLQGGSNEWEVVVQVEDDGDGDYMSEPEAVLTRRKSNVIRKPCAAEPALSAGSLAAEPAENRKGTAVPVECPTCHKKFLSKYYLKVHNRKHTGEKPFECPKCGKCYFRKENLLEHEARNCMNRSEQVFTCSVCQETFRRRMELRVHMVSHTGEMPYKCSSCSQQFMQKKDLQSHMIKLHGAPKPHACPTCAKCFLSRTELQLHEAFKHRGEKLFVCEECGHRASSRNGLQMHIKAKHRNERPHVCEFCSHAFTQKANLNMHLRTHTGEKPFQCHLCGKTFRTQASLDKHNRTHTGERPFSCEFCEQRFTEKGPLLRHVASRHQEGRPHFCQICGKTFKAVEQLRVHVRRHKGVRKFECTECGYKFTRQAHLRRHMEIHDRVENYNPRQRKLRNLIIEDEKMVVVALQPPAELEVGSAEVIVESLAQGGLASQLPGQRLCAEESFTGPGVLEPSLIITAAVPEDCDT", "settings": "SUD4, Compound concentration 1.0 uM"}, "[13]": {"biological_target": "Sodium-dependent noradrenaline transporter (Homo sapiens) (UniProt P23975)", "settings": "Compound concentration 10.0 uM"}}, "data": [{"compound": "C[C@@H]1CN(c2ncc(Cl)c(Nc3ccc4c(c3)n(CCC(C)(C)O)c(=O)n4C)n2)C[C@H](C)C1(F)F", "values": [{"measurement": "Ki", "setting": "[1]", "value": 2500, "unit": "nM"}, {"measurement": "LogFC", "setting": "[2]", "value": -0.712}, {"measurement": "inhibition", "setting": "[3]", "value": 20.8, "unit": "%"}, {"measurement": "Tm", "setting": "[4]", "value": 47, "unit": "°C"}, {"measurement": "Tm", "setting": "[5]", "value": 41, "unit": "°C"}, {"measurement": "Tm", "setting": "[6]", "value": 50, "unit": "°C"}, {"measurement": "LogFC", "setting": "[7]", "value": 0.0189}, {"measurement": "LogFC", "setting": "[8]", "value": 0.111}, {"measurement": "Tm", "setting": "[9]", "value": 45, "unit": "°C"}, {"measurement": "Tm", "setting": "[10]", "value": 44, "unit": "°C"}, {"measurement": "LogFC", "setting": "[11]", "value": -0.00672}, {"measurement": "LogFC", "setting": "[12]", "value": 0.0324}, {"measurement": "inhibition", "setting": "[13]", "value": 18.1, "unit": "%"}]}]}
